# Results: publication PMC9791135, “A penetratin-derived peptide reduces the membrane permeabilization and cell toxicity of α-synuclein oligomers” (The Journal of Biological Chemistry, 2022)
# How the values were obtained:
# α-syn [1] = biological target: T1, α-syn (Homo sapiens, UniProt P37840); assay: SDS-PAGE of soluble α-syn left in supernatant after fibrillation; assay type: biochemical; details: SDS-PAGE after centrifugation of fibrillated samples
# T1 construct: made in house; host or cells: Escherichia coli BL21 (DE3), plasmid pET11-D
# Experimental: Overall, there was a reasonable but not perfect correspondence between SDS-PAGE and ThT data.
# To determine the amount of soluble α-syn, fibrillated samples were centrifuged (13,000 rpm, 15 min) and the supernatants were loaded on Bis–Tris 15% acrylamide gel with prestained protein ladder (Thermo Scientific) and run in a Bis–Tris running buffer at 150 V for 70 min, stained for 20 min in Coomassie brilliant blue (1.2 mM Coomassie brilliant blue, 5% ethanol, and 7% acetic acid), and destained overnight in a destaining solution (5% ethanol and 5% acetic acid). Gel bands were quantified using ImageJ.
# αSOs = biological target: T2, αSOs (Homo sapiens, UniProt P37840); assay: Calcein release assay, αSOs together with peptides; assay type: biochemical; details: αSOs at calcein^50% (5.2 μg/ml)
# T2 construct: made in house; host or cells: Escherichia coli BL21 (DE3); oligomers formed by shaking the monomer and isolated by SEC (Superose 6)
# Experimental: (§1) αSOs show cytotoxic properties, which have been attributed to their membrane-disrupting ability ([69]). To examine the effect of peptides on membrane permeabilization by αSOs, we used a simple calcein release assay. αSOs, peptides, and aSO–peptide mixtures at 10^−6 to 10^−1 mg/ml peptide were added to calcein-loaded DOPG vesicle, and the extent of calcein release was monitored for 30 min by the increase in fluorescence as calcein leaks out upon membrane permeabilization, leading to dilution and the loss of self-quenching. The time-dependent calcein release data from DOPG vesicles ([70], [71]) in the presence of peptides, αSOs, and αSO–peptides are shown in Figs. S9 and S10. In order to allow easy comparison of all peptides, the calcein release versus concentration (peptides and αSOs) were plotted at the plateau point of release (Fig. 5, A–C). […] Figure 5D compares calcein release percentages of data represented in Figure 5, A and B at peptide concentrations between 0.001 and 0.1 mg/ml, where we see the largest extent of calcein release in general.
# (§2) Calcein-filled vesicles of DOPG were prepared as described before ([38]). Briefly, DOPG was dissolved in PBS to […], in the presence of calcein at self-quenching concentrations (70 mM) and subjected to 10 freeze–thaw cycles between liquid nitrogen and a 50 °C water bath. After 21 times extrusion through a 100 nm filter, free calcein was separated from vesicles with a PD-10 desalting column (GE Healthcare). Vesicles were stored at 4 °C and used for calcein release assays within 24 h.
# (§3) Calcein release was measured by mixing peptides and/or αSOs at a final concentration of 10^−6 to 10^−1 mg/ml and 5.2 μg/ml, respectively, in 148 μl with 2 μl of calcein vesicles, and were then loaded onto a 96-well plate (Nunc, Thermo Fischer Scientific) in triplicate. The plate was sealed with Crystal clear sealing tape (Hampton Research), and fluorescence was measured (excitation: 485 nm and emission: 520 nm) for 1 h at 37 °C every 2 min with a 2 s autoshake before each reading on a fluorescence plate reader (Tecan). Finally, 2 μl Triton X-100 (0.2% [v/v]) was added to lyse vesicles, and the maximal fluorescence signal was measured for 20 min under the same reading condition. Background fluorescence was subtracted, and the average signal of calcein release before addition of Triton X-100 (F), after treatment with Triton X-100 (Ft) and for the buffer control (F0) were determined, and calcein release percentage was calculated as follow (Equation 1):(1) CalceinRelease%(CR%)=(F−F0)/(Ft−F0)
# α-syn [2] = biological target: T1, α-syn; assay: TEM of α-syn aggregates formed with peptides; assay type: biochemical; details: α-syn incubated in the presence of peptide
# Experimental: Five microliters of each fibril-containing solution were applied to 400-mesh carbon-coated and glow-discharged nickel grids for 30 s, and blotted with filter paper to remove excess sample. The grids were washed with one drop of double distilled water and then stained with 3 μl of 1% uranyl formate for 15 s. Excess stain was removed by blotting paper This step was repeated two more times. Finally, the grids were left to air dry and viewed on a Tecnai G2 Spirit (FEI Company) operating at 60 kV, and images were taken using a TemCam F416 camera (TVIPS).
# α-syn [3] = biological target: T1, α-syn; assay: ATR–FTIR of fibrillated α-syn–peptide samples; assay type: biochemical; details: for ATR–FTIR (amyloid structures): fibrillated samples after washing, versus α-syn alone; for Amount of amyloid structures (ATR–FTIR), in words: fibrillated α-syn samples in the presence of peptides
# Text: (§4) To analyze the secondary structure of the final aggregates, we recorded far-UV CD and attenuated total reflectance (ATR)–FTIR spectra for fibrillated samples after washing to remove free α-syn and peptides. […] Overall, as the concentration of peptides increases, the intensity of signal at 218 nm decreases (Fig. 4A). We observed that α-syn fibrils formed in the presence of p194, p222, p235, and p249 precipitated rapidly after mixing with these peptides. This likely gives rise to light scattering, which reduces CD signals. To overcome these artifacts, we turned to ATR–FTIR spectroscopy, which is not sensitive to scattering. […] Both far-UV CD and ATR–FTIR spectroscopy confirm extensive β-sheet structure. However, in the presence of peptides, some structural changes were observed as reflected by the decrease in the amyloid cross β-sheet structure at ∼1629 cm^−1 and increases in the random and coil structures (∼1656 and ∼1676 cm^−1, respectively) (Table 2). […] Taking all together, ATR–FTIR data are in reasonable agreement with far-UV CD.
# The samples prepared in the CD section were also used to measure FTIR spectra on a Tensor 27 FTIR spectrophotometer (Bruker). About 2 μl α-syn fibrils were dried on the ATR crystal with a gentle stream of nitrogen gas. Spectra were accumulations of 68 scans in the 4000 to 1000 cm^−1 range. Baseline correlation, second derivative, and atmospheric compensation were performed with OPUS 5.5 software (Bruker, Germany). Signals in the amide I region (∼1550–1700 cm^−1) were smoothed and deconvoluted with PeakFit, version 4.12 software (ِSystat Software Inc) using Lorentzian fitting.
# α-syn [4] = biological target: T1, α-syn; assay: Far-UV CD of fibrillated α-syn–peptide samples; assay type: biochemical; details: fibrillated samples after washing, signal at 218 nm; versus α-syn alone
# Text: as §4
# To remove free α-syn and peptides, fibrillated samples were centrifuged (13,000 rpm, 15 min). This leaves monomeric α-syn plus unbound and free peptides in the supernatant. The supernatant was discarded, and the pellet was washed two times in the same volume of PBS buffer, pH 7.4, to ensure complete removal of monomeric α-syn and free peptides. Far-UV CD spectra were recorded at 25 °C on a Chirascan CD Spectrophotometer (Applied Photophysics) using a 0.1 mm quartz cuvette in the wavelength range of 200 to 260 nm with 1 nm bandwidth and three accumulations. The buffer spectrum was subtracted, and the results were expressed as mean residue ellipticity [θ] (deg cm^2 dmol^−1).
# [5] = Calcein release assay, substance alone; details: for Permeabilization of lipid vesicles by peptide alone: calcein-loaded DOPG vesicles, 10^−6 to 10^−1 mg/ml peptide, 37 °C, triplicate
# Experimental: as §1, §2, §3
# α-syn [6] = biological target: T1, α-syn; assay: ThT fluorescence assay of unseeded α-syn fibrillation in the presence of peptides; assay type: biochemical; details: 1 mg/ml α-syn, 0–0.5 mg/ml peptide, 48 h
# Experimental: To test the effects of these selected nine peptides on the aggregation of α-syn, we performed a thioflavin T (ThT) fluorescence assay in the presence of 1 mg/ml α-syn and 0 to 0.5 mg/ml peptide for 48 h (raw data in Fig. S3). Furthermore, the peptides alone were monitored for self-fibrillation. […] High concentrations of p222, p194, and p249 led to a decline in ThT fluorescence after reaching a plateau, possibly because of the formation of insoluble amorphous species. We also carried out seeding experiments by adding 5% sonicated preaggregated α-syn fibrils to the ThT assay.
# About 150 μl of 70 μM (1 mg/ml) α-syn, 40 μM ThT, and varying amounts of peptides (0, 0.06, 0.125, 0. 25, 0.375, and 0.5 mg/ml) were transferred in triplicates to a black COSTAR 96-well clear bottom plate (Nunc, Thermo Fisher Scientific), and including a 3 mm diameter glass bead (Glaswarenfabrik Karl Hecht GmbH & Co KG) per well to increase reproducibility ([100]). The plate was sealed with Crystal Clear sealing tape (Hampton Research) and incubated at 37 °C in a CLARIOstar Plus (BMG LABTECH) fluorescence plate reader. Fibrillation was carried out for ∼48 h with 300 rpm double orbital shaking between the readings for 372 s (excitation/emission: 448∕485 nm). Seeding experiments were performed using the same setting as for the fibrillation assay as described ([39]). Briefly, the experiments were done in triplicates in the presence of 0.05 mg/ml of α-syn fibril seeds (5% seeding) and 1 mg/ml of peptides in a solution of 1 mg/ml α-syn in 96-well plates.
# Aβ = details: cited from earlier work
# Text: Penetratin is a widely used CPP. Translocation of full-length and N-terminal truncated ([82]) penetratin has been observed in all cell types, and it is also able to cross the blood–brain barrier (BBB) ([83]). Its mechanism of translocation in live cells is complex and involves structural changes from random coil to α-helix ([84]) and transient formation of tubes or inverted micelles in the membrane that entrap the peptide in its interior. […]. The presence of Trp and net positively charged amino acid residues are important for formation of inverted ...
Substance,"Amount of soluble α-syn monomer left in the supernatant, in words (α-syn [1])",Effect on vesicle permeabilization by αSOs (αSOs; peptide 10^−6 to 10^−1 mg/ml),"Morphology of α-syn aggregates (TEM), in words (α-syn [2])",ATR–FTIR (amyloid structures) (α-syn [3]),"Amount of amyloid structures (ATR–FTIR), in words (α-syn [3])",Far-UV CD (β-sheet structures) (α-syn [4]),Permeabilization of lipid vesicles by peptide alone [5],"Effect on α-syn aggregation (ThT), in words (α-syn [6])",Effect on vesicle permeabilization by αSOs (αSOs; peptide 0.1 mg/ml),"Peptide concentration from which membrane toxicity is shown ([5]; peptide alone, calcein-filled DOPG LUVs, tested range 10^−1–10^−6 mg/ml)","ThT signal end level (α-syn [6]; unseeded ThT, 37 °C, versus α-syn alone)",Inhibition of amyloid aggregate formation (Aβ fibrillation) (Aβ)
KEGVVAAAEKTKQG [p12],do not affect the amount of monomer left in the supernatant,failed to affect vesicle permeabilization by αSOs,did not cause any significant change in morphology,↓ amyl,did not show significant changes in FTIR spectra,↓β,did not permeabilize lipid vesicles,did not change the lag phase duration,,,,
MKGLSKAKEGVVAA [p5],do not affect the amount of monomer left in the supernatant,failed to affect vesicle permeabilization by αSOs,did not cause any significant change in morphology,↓ amyl,slightly decreased the amount of amyloid,↓β,did not permeabilize lipid vesicles,did not change the lag phase duration,,,,
"RQIKIWFQARRMKWKK [p194, Ala scan variant of penetratin]",,,nonfibrillar (amorphous) accumulations,↓↓↓ amyl,decreased,↓↓↓β,,inhibitory effect,increased vesicle permeabilization by αSOs,> 10^−2 mg/ml,↓↓,
RQIKIWFQNRRMLWLXaa [pAntp],,,,,,,,,,,,particularly effective inhibitors
RQILIWFQNRRMLWLL [pAntp-BSB1],,,,,,,,,,,,particularly effective inhibitors
SASDSRTFKSSGG [p162],do not affect the amount of monomer left in the supernatant,failed to affect vesicle permeabilization by αSOs,did not cause any significant change in morphology,,slightly decreased the amount of amyloid,↓β,did not permeabilize lipid vesicles,did not change the lag phase duration,,,,
